This is an account of results in patent publication US11970494B2, “6-heteroaryloxy benzimidazoles and azabenzimidazoles as JAK2 inhibitors” (Ajax Therapeutics, Inc., priority 2021, dated 2024).

Series [1] addresses T1, JAK1 (Homo sapiens, UniProt P23458).
T1 construct: made in house; host or cells: T7 phage in BL21-derived E. coli or HEK-293 cells
Briefly: JAK Family Selectivity Assay: JAK1 vs JAK2 binding affinity. Particulars: Kd JAK1 over Kd JAK2. As for the experimental part:
Provided compounds are evaluated for selectivity by comparing their JAK2 binding affinity (Kd) in the above JAK2 Binding Assay with their binding affinity (Kd) for one or more other kinases. Binding affinity for other kinases is determined as follows: Kinase-tagged T7 phage strains are prepared in an E. coli host derived from the BL21 strain. E. coli are grown to log-phase and infected with T7 phage and incubated with shaking at 32° C. until lysis. The lysates are centrifuged and filtered to remove cell debris. The remaining kinases are produced in HEK-293 cells and subsequently tagged with DNA for qPCR detection. Streptavidin-coated magnetic beads are treated with biotinylated small molecule ligands for 30 minutes at room temperature to generate affinity resins for kinase assays. The liganded beads are blocked with excess biotin and washed with blocking buffer (SeaBlock (Pierce), 1% BSA, 0.05% Tween 20, 1 mM DTT) to remove unbound ligand and to reduce non-specific binding. Binding reactions are assembled by combining kinases, liganded affinity beads, and test compounds in 1× binding buffer (20% SeaBlock, 0.17×PBS, 0.05% Tween 20, 6 mM DTT). Test compounds are prepared as 111× stocks in 100% DMSO. Kds are determined using an 11-point 3-fold compound dilution series with three DMSO control points. All compounds for Kd measurements are distributed by acoustic transfer (non-contact dispensing) in 100% DMSO. The compounds are then diluted directly into the assays such that the final concentration of DMSO is 0.9%. All reactions are performed in polypropylene 384-well plate. Each has a final volume of 0.02 ml. The assay plates are incubated at room temperature with shaking for 1 hour and the affinity beads are washed with wash buffer (1×PBS, 0.05% Tween 20). The beads are then re-suspended in elution buffer (1× PBS, 0.05% Tween 20, 0.5 μM non-biotinylated affinity ligand) and incubated at room temperature with shaking for 30 minutes. The kinase concentration in the eluates is measured by qPCR. […] In some embodiments, provided compounds may be JAK2-selective over one or more of the following kinases: JAK1, JAK3, and Tyk2.

In series [2] the target is T2, JAK2 (JH1 domain-catalytic, Y1007F,Y1008F) kinase (Homo sapiens, UniProt O60674, Y1007F/Y1008F).
T2 construct: made in house; host or cells: transiently transfected HEK293 cells
T2 sequence (O60674 849-1124 Y1007F/Y1008F limits assumed): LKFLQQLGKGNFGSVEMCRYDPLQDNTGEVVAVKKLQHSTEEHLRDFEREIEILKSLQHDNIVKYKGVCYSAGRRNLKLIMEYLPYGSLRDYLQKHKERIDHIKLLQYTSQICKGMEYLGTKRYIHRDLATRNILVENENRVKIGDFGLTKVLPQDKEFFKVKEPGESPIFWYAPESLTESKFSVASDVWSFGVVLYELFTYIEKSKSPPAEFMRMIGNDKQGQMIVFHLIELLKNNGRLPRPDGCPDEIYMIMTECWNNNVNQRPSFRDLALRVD
Briefly: JAK2 Binding Assay (JAK2 JH1 Domain Binding Assay). Particulars: JAK2 JH1 domain binding, qPCR detection; read-out: JAK2 Kd. (In general: In qPCR the cycle at which signal appears reflects the starting amount.)

Series [3] in a line: Hepatocyte Stability Assay, rat hepatocytes. Particulars: cryopreserved hepatocytes, read-out: Rat Heps CLint. Type of series: in vitro ADME. As for the experimental part:
10 mM stock solutions of test compound and positive control are prepared in DMSO. Stock solutions are diluted to 100 μM by combining 198 μL of 50% acetonitrile/50% water and 2 μL of 10 mM stock solution. Verapamil is used as positive control in the assay. Vials of cryopreserved hepatocytes are thawed in a 37° C. water bath with gently shaking. The contents are poured into the 50 mL thawing medium conical tube. Vials are centrifuged at 100 g for 10 minutes at room temperature. Thawing medium is aspirated and hepatocytes are re-suspended with serum-free incubation medium to yield ˜1.5×10^6 cells/mL. Cell viability and density are counted using a Trypan Blue exclusion, and then cells are diluted with serum-free incubation medium to a working cell density of 0.5×10^6 viable cells/mL. A portion of the hepatocytes at 0.5×10^6 viable cells/mL are boiled for 5 min prior to adding to the plate as negative control to eliminate the enzymatic activity so that little or no substrate turnover should be observed. Aliquots of 198 μL hepatocytes are dispensed into each well of a 96-well non-coated plate. The plate is placed in the incubator for approximately 10 minutes. Aliquots of 2 μL of the 100 μM test compound and 2 μL positive control are added into respective wells of a non-coated 96-well plate to start the reaction. The final concentration of test compound is 1 μM. This assay is performed in duplicate. The plate is incubated in the incubator for the designed time points. 25 μL of contents are transferred and mixed with 6 volumes (150 μL) of cold acetonitrile with internal standard (100 nM alprazolam, 200 nM labetalol, 200 nM caffeine and 200 nM diclofenac) to terminate the reaction at time points of 0, 15, 30, 60, 90 and 120 minutes. Samples are centrifuged for 25 minutes at 3,220 g and aliquots of 150 μL of the supernatants are used for LC-MS/MS analysis.

Series [4] in a line: Kinetic Solubility Assay. Type of series: physicochemical. The following applies: aqueous buffer, kinetic from dmso stock, kinetic solubility in PBS (pH 4.0 and pH 7.4 in method; pH of table values not stated), RT. As for the experimental part: Stock solutions of test compounds are prepared in DMSO at the concentration of 10 mM, and a stock solution of control compound is prepared in DMSO at the concentration of 30 mM. Diclofenac is used as positive control in the assay. 30 μL stock solution of each compound is placed into their a 96-well rack, followed by adding 970 μL of PBS at pH 4.0 and pH 7.4 into each vial of the cap-less solubility sample plate. This study is performed in duplicate. One stir stick is added to each vial and then vials are sealed using a molded PTDE/SIL 96-Well Plate Cover. The solubility sample plate is transferred to the Thermomixer comfort plate shaker and incubated at RT for 2 hours with shaking at 1100 rpm. After 2 hours incubation, stir sticks are removed using a big magnet and all samples from the solubility sample plate are transferred into the filter plate. All the samples are filtered by vacuum manifold. The filtered samples are diluted with methanol. Samples are analyzed by LC-MS/MS and quantified against a standard of known concentration in DMSO using LC coupled with Mass spectral peak identification and quantitation. The solubility values of the test compounds are calculated as follows, wherein INJ VOL is injection volume, DF is dilution factor, and STD is standard: […]

In brackets after ≈: the same amount, converted by molar mass.

T1 sequence (P23458 whole entry): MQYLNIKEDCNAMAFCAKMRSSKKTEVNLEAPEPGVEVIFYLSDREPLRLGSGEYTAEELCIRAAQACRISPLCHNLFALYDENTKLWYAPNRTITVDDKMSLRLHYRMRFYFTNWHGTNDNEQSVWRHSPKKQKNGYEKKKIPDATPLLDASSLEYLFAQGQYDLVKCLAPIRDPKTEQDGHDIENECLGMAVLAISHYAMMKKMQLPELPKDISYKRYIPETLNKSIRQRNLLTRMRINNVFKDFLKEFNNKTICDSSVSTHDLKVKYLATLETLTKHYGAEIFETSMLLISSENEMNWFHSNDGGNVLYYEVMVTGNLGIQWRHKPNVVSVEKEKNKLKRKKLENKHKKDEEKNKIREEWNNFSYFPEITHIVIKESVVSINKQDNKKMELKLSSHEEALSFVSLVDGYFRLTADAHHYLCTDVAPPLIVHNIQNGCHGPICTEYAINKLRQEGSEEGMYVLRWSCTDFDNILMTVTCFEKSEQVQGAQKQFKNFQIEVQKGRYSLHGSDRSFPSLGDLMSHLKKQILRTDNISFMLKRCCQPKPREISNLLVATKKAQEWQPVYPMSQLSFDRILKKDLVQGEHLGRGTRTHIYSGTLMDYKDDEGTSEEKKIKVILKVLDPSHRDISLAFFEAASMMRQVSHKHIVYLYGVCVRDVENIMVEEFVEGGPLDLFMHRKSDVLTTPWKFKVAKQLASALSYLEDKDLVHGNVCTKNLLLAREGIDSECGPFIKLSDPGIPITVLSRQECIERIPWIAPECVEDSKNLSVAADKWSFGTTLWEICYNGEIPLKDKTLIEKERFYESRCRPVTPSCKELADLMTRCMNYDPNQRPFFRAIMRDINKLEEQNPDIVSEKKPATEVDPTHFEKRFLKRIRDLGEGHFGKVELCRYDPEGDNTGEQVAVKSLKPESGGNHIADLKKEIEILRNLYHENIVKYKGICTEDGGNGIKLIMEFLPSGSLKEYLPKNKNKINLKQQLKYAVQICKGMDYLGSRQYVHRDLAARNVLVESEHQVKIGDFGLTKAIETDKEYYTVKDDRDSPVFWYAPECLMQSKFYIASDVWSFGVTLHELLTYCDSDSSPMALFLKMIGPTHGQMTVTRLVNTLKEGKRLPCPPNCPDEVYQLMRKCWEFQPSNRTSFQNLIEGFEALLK

As a reminder, the Kd is the free concentration of one partner at which half of the binding sites on the other are occupied at equilibrium, for simple one-to-one binding. Broadly, the solubility is the dissolved amount per volume that the medium holds. Turning to `CO[C@@H]1CCN(C(=O)Nc2cc(Oc3cnc4nc(Nc5cc6n(n5)CCC65CCC5)n(C)c4c3C#N)ccn2)C1` [Example I-60, (R)-N-(4-((7-cyano-2-((5′,6′-dihydrospiro[cyclobutane-1,4′-pyrrolo[1,2-b]pyrazol]-2′-yl)amino)-1-methyl-1H-imidazo[4,5-b]pyridin-6-yl)oxy)pyridin-2-yl)-3-methoxypyrrolidine-1-carboxamide], in series [1], the “JAK1/JAK2 Kd/Kd ratio” value is “B (Kd/Kd ratio <1000 and ≥300)”. For the same molecule, the Kd in series [2] was less than 10 nM. Also, the CLint scaled at 1 μM in series [3] was 17 to 35 mL/min/kg. In series [4], this molecule yielded a solubility at 2 h of 9 to 100 µM (≈ 4.99 to 55.5 µg/mL).
Take `COC1CN(C(=O)Nc2cc(Oc3cnc4nc(Nc5cc6n(n5)CCC65CCC5)n(C)c4c3C#N)ccn2)C1` [Example I-61, N-(4-((7-cyano-2-((5′,6′-dihydrospiro[cyclobutane-1,4′-pyrrolo[1,2-b]pyrazol]-2′-yl)amino)-1-methyl-1H-imidazo[4,5-b]pyridin-6-yl)oxy)pyridin-2-yl)-3-methoxyazetidine carboxamide]: in series [1], the “JAK1/JAK2 Kd/Kd ratio” value is given as “A (Kd/Kd ratio ≥1000)”. Further, the Kd in series [2] is less than 10 nM. In series [3], the CLint scaled at 1 μM is 35 to 45 mL/min/kg. This molecule had a solubility at 2 h in series [4] of 0.1 to 9 µM (≈ 0.0541 to 4.87 µg/mL).
As to `COCCOC(=O)Nc1cc(Oc2cnc3nc(Nc4cc5n(n4)CCC54CCC4)n(C)c3c2C#N)ccn1` [Example I-62, 2-methoxyethyl(4-((7-cyano-2-((5′,6′-dihydrospiro[cyclobutane-1,4′-pyrrolo[1,2-b]pyrazol]-2′-yl)amino)-1-methyl-1H-imidazo[4,5-b]pyridin-6-yl)oxy)pyridin-2-yl)carbamate], the “JAK1/JAK2 Kd/Kd ratio” value in series [1] was “B (Kd/Kd ratio <1000 and ≥300)”. In series [2], the Kd was less than 10 nM. Besides, the CLint scaled at 1 μM in series [3] was in the range of 17 to 35 mL/min/kg. Further, in series [4], the solubility at 2 h lay within 0.1 to 9 µM (≈ 0.053 to 4.77 µg/mL).
In the case of `COCC(=O)Nc1cc(Oc2cnc3nc(Nc4cc(C(F)(F)F)cn(C)c4=O)n(C)c3c2Cl)ccn1` [Example I-75, N-(4-((7-chloro-1-methyl-2-((1-methyl-2-oxo-5-(trifluoromethyl)-1,2-dihydropyridin-3-yl)amino)-1H-imidazo[4,5-b]pyridin-6-yl)oxy)pyridin-2-yl)-2-methoxyacetamide], the “JAK1/JAK2 Kd/Kd ratio” value in series [1] is “A (Kd/Kd ratio ≥1000)”. The dissociation constant Kd in series [2] is less than 10 nM. Moreover, the CLint scaled at 1 μM in series [3] is less than 17 mL/min/kg. Further, the solubility at 2 h in series [4] was in the range of 0.1 to 9 µM (≈ 0.0538 to 4.84 µg/mL).
On to `COCC(=O)Nc1cc(Oc2cnc3nc(Nc4cc(C(F)(F)F)cn(C)c4=O)n(C)c3c2C#N)ccn1` [Example I-79, N-(4-((7-cyano-1-methyl-2-((1-methyl-2-oxo-5-(trifluoromethyl)-1,2-dihydropyridin-3-yl)amino)-1H-imidazo[4,5-b]pyridin-6-yl)oxy)pyridin-2-yl)-2-methoxyacetamide], for which the “JAK1/JAK2 Kd/Kd ratio” value in series [1] is “C (Kd/Kd ratio <300 and ≥100)”. Also, the Kd in series [2] was less than 10 nM. For the same molecule, the CLint scaled at 1 μM in series [3] was in the range of 17 to 35 mL/min/kg. Further, the solubility at 2 h in series [4] lay in the range of 0.1 to 9 µM (≈ 0.0528 to 4.76 µg/mL).
For the molecule `CC(=O)Nc1cc(Oc2cnc3nc(Nc4cc(C(F)(F)F)cn(C)c4=O)n(C)c3c2Cl)c(F)cn1` [Example I-88, N-(4-((7-chloro-1-methyl-2-((1-methyl-2-oxo-5-(trifluoromethyl)-1,2-dihydropyridin-3-yl)amino)-1H-imidazo[4,5-b]pyridin-6-yl)oxy)-5-fluoropyridin-2-yl)acetamide], the “JAK1/JAK2 Kd/Kd ratio” value in series [1] was “B (Kd/Kd ratio <1000 and ≥300)”. Besides, in series [2], the dissociation constant (Kd) was less than 10 nM. Also, the CLint scaled at 1 μM in series [3] was in the range of 17 to 35 mL/min/kg. In series [4], this molecule showed a solubility at 2 h of 0.1 to 9 µM (≈ 0.0526 to 4.73 µg/mL).
In the case of `Cn1c(Nc2cc3n(n2)CCC32CCC2)nc2ncc(Oc3ccnc(NC(=O)C4CC4)c3)c(C#N)c21` [Example I-122, N-(4-((7-cyano-2-((5′,6′-dihydrospiro[cyclobutane-1,4′-pyrrolo[1,2-b]pyrazol]-2′-yl)amino)-1-methyl-1H-imidazo[4,5-b]pyridin-6-yl)oxy)pyridin-2-yl)cyclopropanecarboxamide], in series [1], the “JAK1/JAK2 Kd/Kd ratio” value is reported as “D (Kd/Kd ratio <100)”. Also, the Kd in series [2] was less than 10 nM. For the same molecule, in series [3], the CLint scaled at 1 μM was less than 17 mL/min/kg. This molecule displayed a solubility at 2 h in series [4] of 0.1 to 9 µM (≈ 0.0496 to 4.46 µg/mL).
Turning to `CCN1CCN(Cc2ccc(Nc3nc4ccc(Oc5ccnc(NC(C)=O)c5)cc4n3C)cc2C(F)(F)F)CC1` [Example R-1, reference compound], in series [1], the “JAK1/JAK2 Kd/Kd ratio” value is “C (Kd/Kd ratio <300 and ≥100)”. For the same molecule, in series [2], the Kd was less than 10 nM. Besides, the CLint scaled at 1 μM in series [3] lay in the range of 35 to 45 mL/min/kg. Moreover, in series [4], the solubility at 2 h is 100 to 200 µM (≈ 56.8 to 114 µg/mL).
